Among the test systems are 786-0 renal; HCC-2998 colon; K-562 leukemia; SK-MEL-5 melanoma; HT29 colon; RXF 393 renal; OVCAR-3 ovarian; IGROV1 ovarian; SF-295 CNS.
What all share (assay): DTP human tumour cell line panel, 48 h

Structures are written as SMILES.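 Briefly, cells in 96-well plates were exposed to five compound concentrations for 48 h, and endpoints were estimated by linear interpolation. GI50: concentration for 50% inhibition of growth. TGI: total growth inhibition.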 Bounds are passed on as bounds.

As to `N#Cc1cc([N+](=O)[O-])ccc1NC(=O)C(=O)Nc1n[nH]c(N)n1`, the TGI with 786-0 renal, with HCC-2998 colon, in the assay on K-562 leukemia, in the assay with SK-MEL-5 melanoma, in the assay with HT29 colon and in the assay on RXF 393 renal was greater than 100 µM in each case. Moreover, the TGI in the assay on OVCAR-3 ovarian and in the assay on IGROV1 ovarian was greater than 100 µM each time.
In the case of `CC(=O)CNC(=O)OC(C)(C)C`, the concentration for total growth inhibition (TGI) in the assay on 786-0 renal, in the assay on K-562 leukemia, with SK-MEL-5 melanoma, in the assay with SF-295 CNS, with HT29 colon and in the assay with RXF 393 renal was greater than 100 µM in each case. Besides, the total growth inhibition concentration (TGI) in the assay on OVCAR-3 ovarian and in the assay on IGROV1 ovarian was greater than 100 µM each time.
With `C/C(CC(=O)Nc1ccc(C)cc1C)=N/N=C(N)N`, the TGI in the assay on 786-0 renal, with HCC-2998 colon, in the assay on K-562 leukemia, in the assay with SK-MEL-5 melanoma, in the assay on SF-295 CNS and in the assay with HT29 colon was greater than 100 µM in each case. Moreover, the TGI with RXF 393 renal, with OVCAR-3 ovarian and in the assay with IGROV1 ovarian was greater than 100 µM throughout.
For `COC12C=C(C)C(CC1)CC2C(=O)O` (stereo not drawn), the concentration for total growth inhibition (TGI) in the assay on 786-0 renal, in the assay with HCC-2998 colon, in the assay on K-562 leukemia, in the assay with SK-MEL-5 melanoma, in the assay with SF-295 CNS and in the assay on HT29 colon was greater than 100 µM in each case. In addition, the concentration for total growth inhibition (TGI) with RXF 393 renal, with OVCAR-3 ovarian and with IGROV1 ovarian was greater than 100 µM each time.
Consider `O=C(/N=N/C(=O)OCc1ccccc1)OCc1ccccc1`, for which the TGI in the assay with 786-0 renal, in the assay with HCC-2998 colon, in the assay with K-562 leukemia, in the assay on SK-MEL-5 melanoma, with SF-295 CNS and in the assay with HT29 colon was greater than 100 µM in each case. The concentration for total growth inhibition (TGI) with RXF 393 renal, in the assay with OVCAR-3 ovarian and with IGROV1 ovarian was greater than 100 µM each time.
For `COc1ccc(/C=C/CN(C)CCc2ccccc2)cc1OC`, the TGI in the assay with 786-0 renal, in the assay on HCC-2998 colon, in the assay with K-562 leukemia, with SK-MEL-5 melanoma, in the assay with SF-295 CNS and in the assay on HT29 colon was greater than 100 µM throughout. Besides, the TGI in the assay with RXF 393 renal, in the assay on OVCAR-3 ovarian and in the assay on IGROV1 ovarian was greater than 100 µM throughout.
For `COc1ccc(C2=CC3CCC2C3)cc1` (stereo not drawn), the concentration for total growth inhibition (TGI) in the assay on 786-0 renal, in the assay with K-562 leukemia, in the assay on SK-MEL-5 melanoma, in the assay on SF-295 CNS, in the assay on HT29 colon and with RXF 393 renal was greater than 100 µM in each case. Moreover, the total growth inhibition concentration (TGI) in the assay with OVCAR-3 ovarian and with IGROV1 ovarian was greater than 100 µM in each case.
Take `CC(C)(C)C1C=C(Sc2ccccc2)C(=O)O1` (stereo not drawn): the TGI in the assay on 786-0 renal, in the assay on HCC-2998 colon, in the assay with K-562 leukemia, with SF-295 CNS, in the assay on HT29 colon and in the assay on OVCAR-3 ovarian was greater than 100 µM throughout. Besides, in the assay with IGROV1 ovarian, the concentration for total growth inhibition (TGI) was greater than 100 µM.
As to `[Cl-].[Dy+3].[O-]/N=C(\c1ccccc1)c1ccccn1.[O-]/N=C(\c1ccccc1)c1ccccn1.[O-]/N=C(\c1ccccc1)c1ccccn1`, the GI50 was 32.2 µM in the assay with 786-0 renal; 27.6 µM with HCC-2998 colon; 35.9 µM in the assay with K-562 leukemia; 23.7 µM in the assay with SK-MEL-5 melanoma; 20.9 µM in the assay with SF-295 CNS; 45.9 µM with HT29 colon. The results for the GI50 in the assay with OVCAR-3 ovarian and in the assay with IGROV1 ovarian were 24.4 µM and 33.1 µM, respectively. For the same compound, the TGI in the assay with 786-0 renal is 96.6 µM; with HCC-2998 colon, 88.8 µM; with K-562 leukemia, greater than 100 µM; in the assay with SK-MEL-5 melanoma it was 61.7 µM; in the assay with SF-295 CNS it was 68.8 µM; in the assay on HT29 colon it was greater than 100 µM. Also, the TGI was 92.6 µM in the assay with OVCAR-3 ovarian and greater than 100 µM with IGROV1 ovarian.
As for `CCC[CH2][Sn]1([CH2]CCC)[O]Cc2nc(C)ccc2[O]1`, the GI50 was 5.04 µM in the assay with 786-0 renal; 7.86 µM in the assay on HCC-2998 colon; 3.17 µM in the assay on K-562 leukemia; 13 µM in the assay on SK-MEL-5 melanoma; 2.02 µM with SF-295 CNS; 12.8 µM in the assay on HT29 colon. In addition, the values for the GI50 in the assay with RXF 393 renal, with OVCAR-3 ovarian and in the assay on IGROV1 ovarian were 8.15 µM, 5.05 µM and 14.9 µM, respectively. For the same compound, the concentration for total growth inhibition (TGI) with 786-0 renal was found to be 16.8 µM; in the assay on HCC-2998 colon, 21.3 µM; with K-562 leukemia, 10.5 µM; in the assay with SK-MEL-5 melanoma, 25.9 µM; with SF-295 CNS it was 3.69 µM; with HT29 colon, 29.1 µM. Moreover, the concentration for total growth inhibition (TGI) is 19.9 µM in the assay with RXF 393 renal, 17 µM in the assay with OVCAR-3 ovarian and 28.8 µM in the assay on IGROV1 ovarian.
Turning to `CC1=NN(C(=O)Nc2ccccc2)C(=O)C2CCC(=O)N12` (stereo not drawn), the TGI in the assay with 786-0 renal, in the assay on HCC-2998 colon, in the assay on K-562 leukemia, with SK-MEL-5 melanoma, in the assay on SF-295 CNS and with RXF 393 renal was greater than 100 µM throughout. Moreover, the total growth inhibition concentration (TGI) in the assay with OVCAR-3 ovarian and in the assay on IGROV1 ovarian was greater than 100 µM throughout.
On to `COC(=O)/C(=N/NC(=O)C[N+](C)(C)C)C(C(=O)OC)C(=O)C(=O)Nc1ccc(F)cc1` (stereo not drawn), for which the concentration for total growth inhibition (TGI) in the assay with 786-0 renal, in the assay on HCC-2998 colon, with K-562 leukemia, with SK-MEL-5 melanoma, in the assay on SF-295 CNS and with HT29 colon was greater than 100 µM each time. Also, the total growth inhibition concentration (TGI) in the assay with RXF 393 renal, with OVCAR-3 ovarian and with IGROV1 ovarian was greater than 100 µM each time.
Take `COC(=O)c1c/c(=N\NC(=O)CC(=O)Nc2ccccc2OC)c2ccccc2o1`: the TGI in the assay on 786-0 renal, in the assay on HCC-2998 colon, in the assay with K-562 leukemia, in the assay with SK-MEL-5 melanoma, in the assay with HT29 colon and in the assay with OVCAR-3 ovarian was greater than 100 µM in each case. In addition, the concentration for total growth inhibition (TGI) in the assay on IGROV1 ovarian is greater than 100 µM.
As to `CCOC(=O)[C]1([Bi]([CH3])[CH3])N=NC(C(=O)OC)=C1C(=O)OC` (stereo not drawn), the GI50 is 18.8 µM in the assay with 786-0 renal; 16.4 µM in the assay on HCC-2998 colon; 16.5 µM in the assay on K-562 leukemia; greater than 100 µM in the assay on SF-295 CNS; 19.3 µM in the assay on HT29 colon; 16.5 µM in the assay with OVCAR-3 ovarian. Moreover, the GI50 in the assay on IGROV1 ovarian is 24.6 µM. In addition, the TGI is 33.2 µM with 786-0 renal; 30.7 µM with HCC-2998 colon; 65.7 µM in the assay with K-562 leukemia; greater than 100 µM with SF-295 CNS; 39.4 µM in the assay with HT29 colon; 31.7 µM with OVCAR-3 ovarian. Also, in the assay with IGROV1 ovarian, the TGI came to 51.9 µM.
For the compound `COC(=O)/C=C/c1cc(OC)c(OC)c(OC)c1`, the TGI in the assay with 786-0 renal, with HCC-2998 colon, with SK-MEL-5 melanoma, in the assay on SF-295 CNS, in the assay with HT29 colon and in the assay with RXF 393 renal was greater than 100 µM in each case. Moreover, the TGI with OVCAR-3 ovarian and in the assay with IGROV1 ovarian was greater than 100 µM in each case.
For `O=C1CCC2(c3ccc(F)cc3)Nc3cc(Cl)ccc3N12` (stereo not drawn), the TGI with 786-0 renal, in the assay on K-562 leukemia, with SK-MEL-5 melanoma, in the assay on SF-295 CNS, in the assay with HT29 colon and with RXF 393 renal was greater than 100 µM in each case. Besides, the total growth inhibition concentration (TGI) in the assay on OVCAR-3 ovarian and in the assay on IGROV1 ovarian was greater than 100 µM each time.
In the case of `Cc1cc2c(cc1C)[n+](=O)c(C(=O)C/C(=N/NC(=O)CC#N)C(=O)Nc1ccccc1C(F)(F)F)c(C)n2[O-]`, the TGI in the assay on 786-0 renal, with HCC-2998 colon, in the assay on K-562 leukemia, in the assay on SF-295 CNS, in the assay with HT29 colon and in the assay on RXF 393 renal was greater than 100 µM throughout. Moreover, the total growth inhibition concentration (TGI) with OVCAR-3 ovarian and with IGROV1 ovarian was greater than 100 µM each time.
As to `O=C1/C(=C/c2ccccc2)CNC/C1=C\c1ccccc1`, the TGI in the assay on 786-0 renal is 2.93 µM; with HCC-2998 colon it was 3.33 µM; in the assay on K-562 leukemia it was greater than 23.8 µM; with SK-MEL-5 melanoma it was 4.07 µM; in the assay with SF-295 CNS it was 5.25 µM; with HT29 colon it was 3.13 µM. The concentration for total growth inhibition (TGI) in the assay on OVCAR-3 ovarian stood at 3.09 µM; in the assay on IGROV1 ovarian, 3.63 µM.
Turning to `CSC(C1c2ccccc2N(c2ccc(C)cc2)C2=NC(=O)N(C)C(=O)C21Cl)S(=O)(=O)c1ccc(C)cc1` (stereo not drawn), the concentration for total growth inhibition (TGI) came out at 38.4 µM in the assay with 786-0 renal; 36.6 µM with HCC-2998 colon; 53.9 µM with K-562 leukemia; 32.3 µM in the assay on SK-MEL-5 melanoma; 62.4 µM with SF-295 CNS; 57 µM in the assay with HT29 colon. The TGI with OVCAR-3 ovarian was 30.9 µM; in the assay on IGROV1 ovarian it was 85.6 µM.
With `COc1ccc(/C(COc2c(-c3ccccc3)oc3ccccc3c2=O)=N\O)cc1`, the GI50 was 40.6 µM with 786-0 renal; 8.42 µM in the assay with HCC-2998 colon; 18.9 µM with K-562 leukemia; 9.61 µM in the assay on SK-MEL-5 melanoma; 20.7 µM in the assay on HT29 colon; 31.9 µM with RXF 393 renal. The GI50 with IGROV1 ovarian is 22.9 µM. Moreover, the total growth inhibition concentration (TGI) with 786-0 renal was greater than 50 µM; in the assay with HCC-2998 colon it was 22.3 µM; with K-562 leukemia, greater than 50 µM; in the assay on SK-MEL-5 melanoma it was 20.1 µM; in the assay on HT29 colon it was greater than 50 µM; in the assay on RXF 393 renal, greater than 50 µM. Besides, the TGI in the assay with IGROV1 ovarian was greater than 50 µM.

Values taken from PubChem BioAssay (NCI).
